In patent US20250122193A1, “NOVEL PYRIDOCARBAZOLIUM COMPOUNDS AND MEDICAL USES THEREOF” (MyCural Therapeutics, priority 2021, published 2025):

Experiments:
FRA1:JUN interaction = biological target: T1, FRA1:JUN interaction (Homo sapiens, UniProt P05412+P15407); experiment: in situ proximity ligation assay (isPLA), FRA1:JUN; assay type: cell-based; details: 5 μM, 24 hours, MCF-7 cells
T1 construct: endogenous in cells; host or cells: MCF7

[1] = tested on: primary patient derived glioblastoma cells; experiment: primary glioblastoma cultures, resazurin assay; details: 42 patients, 2D cultures, 72 hours
Method: A) Primary glioblastoma samples from 42 patient biopsies were cultured for 72 hours in presence of MYCMI-7 at indicated doses and cell growth was measured by the resazurin assay.
Viability measurements in glioblastoma initiating cell cultures: The adherent human glioblastoma initiating cell cultures (2) were seeded on laminin-coated 384-well microplates (BD Falcon Optilux #353962). […] Cell cultures (45 for screen 2 and 24/29 for screen 3) were plated one day prior to treatment using a Multidrop plate dispenser (ThermoScientific). Drugs were transferred using an ECHO550 non-contact liquid dispenser (Labcyte, USA) to a 384 standard dispensing plate. The substances were subsequently diluted in medium and lifted with a 384 head and a Janus MTD liquid dispenser (PerkinElmer, USA) to the cell plates. The screening experiment was assayed for viability using resazurin (R7017, Sigma Aldrich) after 72 hours of treatment as previously described (3), and detected by a fluorescent plate reader (EnVision multilabel reader, PerkinElmer) at excitation and emission wavelengths of 535/595 nm. As a negative control, DMSO vehicle was added at 4 different concentrations (16 wells/plate) and doxorubicin was used as a positive control (one 11-dose response curve on each plate). Each treatment dose was mapped to their individual exact DMSO concentration for normalization. […]

[2] = biological target: T2, endogenous MYC:MAX interaction (Homo sapiens, UniProt P01106); experiment: in situ proximity ligation assay (isPLA), MYC:MAX; assay type: cell-based; details: 5 μM, 24 hours, MCF-7 cells
T2 construct: endogenous in cells; host or cells: MCF7
T2 sequence (P01106 16-454): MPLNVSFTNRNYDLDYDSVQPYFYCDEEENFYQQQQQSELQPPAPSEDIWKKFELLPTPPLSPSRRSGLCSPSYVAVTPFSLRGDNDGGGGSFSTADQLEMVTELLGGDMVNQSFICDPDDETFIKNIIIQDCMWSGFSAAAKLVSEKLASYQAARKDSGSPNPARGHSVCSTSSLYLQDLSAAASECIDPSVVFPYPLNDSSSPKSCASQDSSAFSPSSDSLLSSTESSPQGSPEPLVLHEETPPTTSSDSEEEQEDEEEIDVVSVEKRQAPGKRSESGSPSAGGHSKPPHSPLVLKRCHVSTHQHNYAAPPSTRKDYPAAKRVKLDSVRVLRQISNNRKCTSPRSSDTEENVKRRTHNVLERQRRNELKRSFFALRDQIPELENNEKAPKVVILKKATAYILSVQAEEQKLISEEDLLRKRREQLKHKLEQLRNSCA
Method: FIG. 1: MYCMI-7 (Compound Example 1) inhibits the MYC:MAX interaction in cells, bind MYC in vitro, and blocks MYC function. A) Molecular structure of MYCMI-7. B-E) split Gaussia luciferase (GLuc) assay. MYC or MYCN and MAX Gluc constructs were co-transfected into HeLa cells together with a firefly luciferase vector. 24 hours post transfection cells were treated with compounds, and after another 17-24 hours cells were harvested and both GLuc and firefly luciferase activities were measured. The mean of three different experiments is shown. […] G) Quantification of isPLA dots. […] J) MYC target gene ODC1 expression after treatment with 5 μM MYCMI-7, quantified by qPCR. […] L) Recombinant MYC bHLHZip protein domain immobilized onto a CM5 chip was subjected to various concentrations of MYCMI-7 and the complex of MYCbHLHZip-MYCMI-7 was measured as response units by SPR. […]
Briefly, cells were grown on collagen-coated chamber slides (Falcon), treated with compounds and then washed twice with PBS and fixed in ice cold methanol for 5-15 min at room temperature. […] Images were taken using an Axiovert 200M inverted microscope (Zeiss) and fluorescent dots were quantified using semi-automated analysis in ImageJ (http://imagej.net) and averaged to number of dots per cell. […]

MYCN:MAX interaction = biological target: T3, MYCN:MAX interaction (Homo sapiens, UniProt P04198); experiment: split Gaussia luciferase (GLuc) assay, MYCN:MAX; assay type: cell-based; details: 5 μM, HeLa cells
T3 construct: replacing the existing Zip-gene (GCN4) with full length MYC, MYCN or MAX cDNA; expressed in transfected cells; host or cells: HeLa
T3 sequence (P04198 1-464): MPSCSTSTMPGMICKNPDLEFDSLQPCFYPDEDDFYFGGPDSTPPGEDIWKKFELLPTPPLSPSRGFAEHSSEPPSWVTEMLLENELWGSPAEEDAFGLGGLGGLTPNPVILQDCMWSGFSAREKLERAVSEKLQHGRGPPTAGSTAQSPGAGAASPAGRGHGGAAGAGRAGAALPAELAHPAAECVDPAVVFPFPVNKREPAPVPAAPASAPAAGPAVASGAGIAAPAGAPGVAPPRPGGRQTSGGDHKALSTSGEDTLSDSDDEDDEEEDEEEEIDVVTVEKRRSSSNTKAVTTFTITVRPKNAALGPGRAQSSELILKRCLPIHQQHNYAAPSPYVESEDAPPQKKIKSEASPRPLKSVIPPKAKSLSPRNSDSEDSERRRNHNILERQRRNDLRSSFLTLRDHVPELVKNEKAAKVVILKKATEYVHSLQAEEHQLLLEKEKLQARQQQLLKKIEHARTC
Method: A) Molecular structure of MYCMI-7. B-E) split Gaussia luciferase (GLuc) assay. MYC or MYCN and MAX Gluc constructs were co-transfected into HeLa cells together with a firefly luciferase vector. 24 hours post transfection cells were treated with compounds, and after another 17-24 hours cells were harvested and both GLuc and firefly luciferase activities were measured. The mean of three different experiments is shown. Treatment with: B) 5 μM of MYCMI-7, 64 μM 10058-F4 or 5 μM JQ1, respectively, C) 6.5 μM MYCMI-7 on cells expressing MYC:MAX GLuc vs. GCN4:GCN4 GLuc, D) 5 μM MYCMI-7 and 5 μM ellipticine. E) 5 μM MYCMI-7 for various time points. F) in situ proximity ligation assay (isPLA). […] MYC:GAL4 was used as negative control in the isPLA assay. G) Quantification of isPLA dots. (H) Co-immunoprecipitation (co-IP) of endogenous MYC and MAX proteins from MCF7 cells after treatment with 5 μM MYCMI-7 at various times. IP=immunoprecipitation; W=western blot. I) Chromatin immunoprecipitation (ChIP) of MYC at the ODC1 target gene promoter after treatment of cells with 5 μM MYCMI-7 for 6 hours. J) MYC target gene ODC1 expression after treatment with 5 μM MYCMI-7, quantified by qPCR. […] L) Recombinant MYC bHLHZip protein domain immobilized onto a CM5 chip was subjected to various concentrations of MYCMI-7 and the complex of MYCbHLHZip-MYCMI-7 was measured as response units by SPR. […]
0.2-0.4 μg of each GLuc-construct together with 0.05 μg pCMV-LUC (firefly luciferase) were used per transfection in 12 well plates. […] After 60 min incubation at room temperature 20 μM D-luciferin was added (substrate of Firefly luciferase) and luminescence was measured in a Lumat LB9501 (Berthold) or OmegaFluostar (BMG Labtech) luminometer. Directly after, Gaussia luciferase substrate Coelenterazine (Promega) was added to a final concentration of 20 μM in a mixture with “Stop n' Glow” (Promega) and the luciferase activity was measured. The ratio between Gaussia and Firefly luciferase values were calculated and normalized to DMSO-treated control cells.

[3] = tested on: MYC target genes CR2, RGS16, CAMKV and nucleolin; experiment: MYC transactivation of target genes in U2OS-MYCER cells, RT-qPCR; assay type: cell-based; details: 5 μM, 24 hours
Method: F) Inhibition of MYC transactivation of target genes CR2, RSG16, CAKMV and nucleolin as determined by RT-qPCR analysis, based on three biological experiments with three technical repeats each. U2OS-MYCER cells were treated with (MYC ON) or without (MYC OFF) 100 nM 4-hydroxy-tamoxifen (4-OHT) for 4 hours, after which DMSO or MYCMI-7 (5 μM) were added for 24 hours before total RNA was extraction. Fold changes in mRNA expression are presented relative to DMSO in MYC OFF cells after normalization to GAPDH, used as reference gene.

T1 sequence (P15407 whole entry): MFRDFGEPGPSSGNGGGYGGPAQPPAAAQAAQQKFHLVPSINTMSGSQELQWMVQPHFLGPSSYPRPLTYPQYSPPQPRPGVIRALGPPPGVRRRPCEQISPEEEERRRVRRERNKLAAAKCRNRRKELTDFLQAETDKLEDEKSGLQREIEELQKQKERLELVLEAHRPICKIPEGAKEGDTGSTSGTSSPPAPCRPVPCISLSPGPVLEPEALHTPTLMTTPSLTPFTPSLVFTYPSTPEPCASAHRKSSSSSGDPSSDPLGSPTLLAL
T1 sequence (P05412 whole entry): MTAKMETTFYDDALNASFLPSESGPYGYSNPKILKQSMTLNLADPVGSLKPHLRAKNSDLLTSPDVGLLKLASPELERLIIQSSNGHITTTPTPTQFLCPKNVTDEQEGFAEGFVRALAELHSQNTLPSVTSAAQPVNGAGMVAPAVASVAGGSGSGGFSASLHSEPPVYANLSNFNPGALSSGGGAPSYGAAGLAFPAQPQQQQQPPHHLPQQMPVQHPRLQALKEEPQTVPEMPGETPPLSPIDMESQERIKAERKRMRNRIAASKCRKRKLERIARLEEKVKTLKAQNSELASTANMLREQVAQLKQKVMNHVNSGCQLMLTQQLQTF

CCN(CC)CC[n+]1ccc2c(C)c3[nH]c4ccccc4c3c(C)c2c1 [MYCMI-7, 2-(5,11-Dimethyl-6H-25-pyrido[4,3-b]carbazol-2-yl)-N,N-diethylethanamine bromide]
inhibition of FRA1:JUN interaction (isPLA) (FRA1:JUN interaction): not
GI50 [1]: submicromolar range
inhibition of MYC:MAX interaction (isPLA) [2]: strongly inhibited
inhibition of MYCN:MAX GLuc interaction (MYCN:MAX interaction): inhibited
4-OHT-induced expression of CR2, RGS16, CAMKV and nucleolin [3]: significantly reduced
